Measured values taken from publication PMC12703733, “Probing Guanidino Pendant or Bridged Groups in Cyclic Antimicrobial Peptides Derived from Temporin L: A Strategy to Improve Efficacy against Gram-Negative Bacteria” (Journal of Medicinal Chemistry, 2025).
Values after ≈ are worked out from the molar mass of the structure shown. Like-named read-outs stand apart in the source and are kept apart here. Bridge positions count the residues as written; N and C are the ends. Square brackets hold non-standard residues; d marks the D form. Peptide text beside a SMILES is read from it. Phe(4-guanidino) = N=C(N)Nc1ccc(C[C@H](N)C(=O)O)cc1

Legend:
circular dichroism = conditions: water; pH ns; 25 °C; 150 uM
A. baumannii ATCC 19606 = assay: microbe, parasite or virus in culture; assay type: cell-based; conditions: ATCC 19606
Outline: (§1)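 Broth MIC determination: cells grown to mid-log phase, diluted to 2 × 10^6 cell/mL in Mueller Hinton, then incubated with compound at 37 °C.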

B. megaterium BM11 = assay: microbe, parasite or virus in culture; assay type: cell-based; conditions: BM11
Outline: as §1

E. coli ATCC 25922 = assay: microbe, parasite or virus in culture; assay type: cell-based; conditions: ATCC 25922
Outline: as §1

E. coli D21 = assay: microbe, parasite or virus in culture; assay type: cell-based; conditions: D21
Outline: as §1

E. faecalis ATCC 29212 = assay: microbe, parasite or virus in culture; assay type: cell-based; conditions: ATCC 29212
Outline: as §1

P. aeruginosa PAO1 = assay: microbe, parasite or virus in culture; assay type: cell-based; conditions: PAO1
Outline: as §1

S. agalactiae ATCC 27591 = assay: microbe, parasite or virus in culture; assay type: cell-based; conditions: ATCC 27591
Outline: as §1

S. aureus ATCC 25923 [1] = assay: microbe, parasite or virus in culture; assay type: cell-based; conditions: ATCC 25923
Outline: as §1

[2] = test system: S. epidermidis ATCC 12228; assay: microbe, parasite or virus in culture; assay type: cell-based; conditions: ATCC 12228
Outline: as §1

all bacteria tested = assay: MIC panel, geometric mean over all strains; assay type: cell-based; conditions: geometric mean of the MICs against all bacteria tested
Method: (§2) The antimicrobial efficacy of the TLcyc analogues was assessed against a representative panel of Gram-positive and Gram-negative bacterial strains, by determining their minimal inhibitory concentrations (MIC), as summarized in Table . To provide an integrated measure of antimicrobial potency, we calculated the geometric mean (GM) of MIC values across all strains (GMall), as well as separately for Gram-positive (GMGram+) and Gram-negative (GMGram–) bacteria.
(§3) Bacterial strains used in this study were the Gram-positive S. aureus ATCC 25923, S. epidermidis ATCC 12228, B. megaterium BM11, S. agalactiae ATCC 27591, E. faecalis ATCC 29212 and the Gram-negative E. coli ATCC 25922, P. aeruginosa ATCC 27853, A. baumannii ATCC 19606, E. coli D21 and P. aeruginosa PAO1. […] Bacterial cells in the mid log phase were diluted in Muller Hinton (MH) at a concentration of 2 × 10^6 cell/mL. Aliquots of 50 μL of this bacterial suspension were added to 50 μL of MH containing serial 2-fold dilutions of the peptides (from 100 to 0.19 μM) in the wells a 96-well plate. Ciprofloxacin was used as antibiotic control. The plate was then incubated at 37 °C. MICs were obtained from three identical readings of four independent experiments.

[3] = test system: Gram-positive bacteria tested; assay: MIC panel, Gram-positive strains (geometric mean, range); assay type: cell-based; conditions: geometric mean of the MICs against Gram-positive bacteria tested
Method: as §2, §3

[4] = test system: Gram-negative bacteria tested; assay: MIC panel, Gram-negative strains (geometric mean); assay type: cell-based; conditions: geometric mean of the MICs against Gram-negative bacteria tested
Method: as §2, §3

[5] = assay type: cell-based, human; conditions: human
Outline: (§4)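 Cells were plated at about 4 × 10^4/well in 2% FBS, then exposed to peptide at 100–3.12 μM in serum-free medium for 2 h or 24 h. Viability was measured by MTT reduction (0.5 mg/mL, 4 h, absorbance 570 nm) relative to untreated cells, as the mean ± SEM of three experiments.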

[6] = test system: human keratinocytes (HaCaT cells); assay type: cell-based; conditions: human, 24 h
Outline: as §4

[7] = Circular dichroism in water (BeStSel); assay type: physicochemical; conditions: predicted from CD spectra in H2O using BeStSel
Method: The secondary structure of each peptide was studied in solution and in small unilamellar vesicles (SUVs) mimicking Gram-positive and Gram-negative membranes performing CD analysis. The CD spectrum for each peptide in solution was recorded at 150 μM, using the quartz cells of 0.1 cm path length with a Jasco J-1500 CD Spectrometer at 25 °C. SUVs at the concentration of 150 μM (P/L = 1) and […] (P/L = 0.4) were prepared as reported: the lipid film was hydrated with water for 1h and then sonicated for 30 min. CD spectra were recorded at the peptide/lipid ratio of 1:1 both in the presence with SUVs mimicking Gram-positive and Gram-negative membranes. CD spectra were recorded at 25 °C on a in a 0.1 cm quartz cell using three consecutive scans from 260 to 190 nm, 3 nm bandwidth, a time constant of 16 s, and a scan rate of 10 nm/min.

[8] = test system: methicillin-resistant Staphylococcus aureus (MRSA); conditions: MRSA strain; ref Verma et al.; cited from earlier work
P. aeruginosa ATCC 27853 = assay: microbe, parasite or virus in culture; assay type: cell-based; conditions: ATCC 27853
Outline: as §1

[9] = assay type: cell-based; conditions: Cell viability (%)
Method: For the evaluation of peptides’ cytotoxicity, the human immortalized keratinocytes (HaCaT cells), purchased from AddexBio (San Diego, CA, USA), and BEAS-2B were used. HaCaT cells were cultured in Dulbecco’s modified Eagle’s medium supplemented with 4 mM glutamine (DMEM), 10% heat-inactivated fetal bovine serum (FBS), and 0.1 mg/mL of penicillin and streptomycin, at 37 °C and 5% CO2. BEAS-2B cells were cultured in RPMI, supplemented with 2 mM glutamine (DMEM), 10% heat-inactivated fetal bovine serum (FBS), 1 mM sodium pyruvate, and 0.1 mg/mL of penicillin and streptomycin, at 37 °C and 5% CO2. Cytotoxicity was tested in vitro using a colorimetric assay that relies on the intracellular reduction of the yellow 3-(4,5-dimethylthiazol-2-yl)-2,5-diphenyltetrazolium bromide salt (MTT) by mitochondrial dehydrogenases of metabolically active cells in formazan crystals (purple). About 4 × 10^4 HaCaT and BEAS-2B cells, suspended in DMEM supplemented with 2% FBS, were plated in triplicate wells of a 96-well microtiter plate. The plate was incubated overnight at 37 °C and 5% CO2. Then, the cells were treated with different concentrations of the peptide (from 100 to 3.12 μM) in a fresh serum-free medium for 2 h and for a longer time (24 h). Following peptide treatment, the medium was removed, and MTT (0.5 mg/mL) solution in Hank’s buffer (136 mM NaCl, 4.2 mM Na2HPO4, 4.4 mM KH2PO4, 5.4 mM KCl, 4.1 mM NaHCO3, pH 7.2, supplemented with 20 mM D-glucose) was added to each well of the plate, that was then incubated for 4 h at 37 °C and 5% CO2. The purple formazan crystals were dissolved using acidified 2-propanol and a microplate reader (Infinite M200; Tecan, Salzburg, Austria) was used to measure the absorbance of each well at 570 nm. The percentage of cell viability was calculated compared to the control, which consisted of cells without any peptide treatment (corresponding to 100% viability) and all data represent the mean of three independent experiments ± SEM.

in vitro = in vitro ADME; conditions: isolated enzyme chymotrypsin, pH 7.8
Method: Peptide stability was evaluated by modifying previously described procedures. , The assays were performed in human serum and in the presence of proteolytic enzymes such as trypsin and chymotrypsin. For human serum stability, 2 mM peptide stock solutions were prepared in water and mixed with human serum (from male AB plasma, USA origin, sterile-filtered, Merck/Sigma-Aldrich, USA) to obtain a final concentration of 200 μM [human plasma/stock solution (9:1, v/v)]. The mixtures were incubated at 37 ± 1 °C, and 50 μL aliquots were taken at predetermined time intervals (0, 1, 2, 4, 8, and 24 h). Protease activity was quenched by adding 100 μL of acetonitrile (MeCN). The resulting cloudy suspensions were cooled to 4 °C for 30 min and centrifugated at 12,000 rpm for 10 min to remove the serum proteins. Then, the supernatants were analyzed by analytical HPLC (Shimadzu Nexera Liquid Chromatograph LC-30AD) which was equipped with a Phenomenex Kinetex reversed-phase column (C18, 5 μm, 100 Å, 150 mm × 4.6 mm) with a flow rate of 1 mL/min using a gradient of MeCN (0.1% TFA) in water (0.1% TFA), from 10 to 70% over 15 min, and UV detection at 220 nm. For enzyme stability, each peptide peptide (200 μM) was incubated with trypsin (0.5 μM) in PBS 1× (pH 7.2) or with chymotrypsin (0.005 μM) in Tris–HCl (100 mM, pH 7.8). Samples (50 μL) were collected at 0, 1, 2, 4, and 24 h, quenched with 0.5% TFA in water, and analyzed by HPLC under chromatographic conditions as described above. All experiments were conducted in triplicate. The percentage of intact peptides at each time point was determined by integrating the corresponding HPLC peak areas.

S. aureus ATCC 25923 [10] = assay type: cell-based
Method: The ability of peptides to alter the bacterial membrane permeability of planktonic cells of S. aureus ATCC 25923 and P. aeruginosa ATCC 27853 was determined by the Sytox Green assay. Approximately 1 × 10^6 cells in 100 μL of PBS were combined with 1 μM Sytox Green in the dark for 5 min. The fluorescence intensity was monitored using a microplate reader (Infinite M200, Tecan), with excitation and emission at λ = 485 and 535 nm, respectively. Peptides were added (time = 0) at three different concentrations (i.e., 3.12, 6.25, and 12.5 μM). Increase in the fluorescence intensity is due to the binding of the dye to intracellular nucleic acids. Controls consisted of cells that were not exposed to the peptides. The values correspond to one representative experiment out of three independent experiments.

Compound	helicity (circular dichroism) [%]	MIC (A. baumannii ATCC 19606) [µM]	MIC (B. megaterium BM11) [µM]	MIC (E. coli ATCC 25922) [µM]	MIC (E. coli D21) [µM]	MIC (E. faecalis ATCC 29212) [µM]	MIC (S. agalactiae ATCC 27591) [µM]	MIC (S. aureus ATCC 25923 [1]) [µM]	MIC [2] [µM]	CC50 at 24 h [5] [µM]	viability at 2 h, 3.12 µM ([5]; Cell viability (%)) [%]	viability at 2 h, 6.25 µM ([5]; Cell viability (%)) [%]	viability at 2 h, 12.5 µM ([5]; Cell viability (%)) [%]	viability at 2 h, 25 µM ([5]; Cell viability (%)) [%]	viability at 2 h, 100 µM ([5]; Cell viability (%)) [%]	viability at 24 h, 3.12 µM ([5]; Cell viability (%)) [%]	viability at 24 h, 6.25 µM ([5]; Cell viability (%)) [%]	viability at 24 h, 12.5 µM ([5]; Cell viability (%)) [%]	viability at 24 h, 25 µM ([5]; Cell viability (%)) [%]	viability at 24 h, 50 µM ([5]; Cell viability (%)) [%]	further results
CC[C@H](C)[C@H](NC(=O)[C@H](CCCNC(=N)N)NC(=O)[C@H]1CCC(=O)NCCCC[C@H](NC(=O)[C@H](Cc2ccccc2)NC(=O)[C@H](Cc2c[nH]c3ccccc23)NC(=O)[C@@H]2CCCN2C(=O)[C@@H](NC(=O)[C@@H](N)Cc2ccccc2)C(C)C)C(=O)N[C@@H](CCCNC(=N)N)C(=O)N[C@@H](Cc2ccccc2)C(=O)N[C@H](CC(C)C)C(=O)N1)C(=O)N[C@@H](CC(C)C)C(N)=O [Peptide 9, FVPWF[KRFle]RIL] (H-FVPWFKRF[dL][dE]RIL-NH2; lactam 6-10)	11	3.12 (≈ 5.4 µg/mL)	1.56 (≈ 2.7 µg/mL)	6.25 (≈ 10.8 µg/mL)	6.25 (≈ 10.8 µg/mL)	12.5 (≈ 21.7 µg/mL)	3.12 (≈ 5.4 µg/mL)	6.25 (≈ 10.8 µg/mL)	3.12 (≈ 5.4 µg/mL)	> 50	106	106	98	94	22	115 ± 23	109 ± 24	112 ± 20	120 ± 13	82 ± 10	MIC (P. aeruginosa PAO1): 50 µM (≈ 86.6 µg/mL); geometric mean GMall (all bacteria tested): 7.67 µM; geometric mean GMGram+ [3]: 4.11 µM; geometric mean GMGram– [4]: 14.32 µM; viability at 2 h, 50 µM ([5]; Cell viability (%)): 74%; viability at 24 h, 100 µM ([5]; Cell viability (%)): 4 ± 2%; CC50 [6]: 54.3 µM; Content in water (%) random [7]: 53%; Content in water (%) α-helix [7]: 11%; Content in water (%) β-strand [7]: 36%
FVQWFSKFLGRIL [TL, 13-mer linear antimicrobial peptide from Rana temporaria]																					MIC [8]: 6.25 µM
CC[C@H](C)[C@H](NC(=O)[C@H](CCCNC(=N)N)NC(=O)[C@H]1CCC(=O)NCCCC[C@H](NC(=O)[C@H](Cc2ccccc2)NC(=O)[C@H](Cc2c[nH]c3ccccc23)NC(=O)[C@@H]2CCCN2C(=O)[C@@H](NC(=O)[C@@H](N)Cc2ccc(NC(=N)N)cc2)C(C)C)C(=O)N[C@@H](CCCCN)C(=O)N[C@@H](Cc2ccccc2)C(=O)N[C@H](CC(C)C)C(=O)N1)C(=O)N[C@@H](CC(C)C)C(N)=O [Peptide 6, (p-guanidino)FVPWF[KKFle]RIL] (H-[Phe(4-guanidino)]VPWFKKF[dL][dE]RIL-NH2; lactam 6-10)	16	3.12 (≈ 5.49 µg/mL)	0.78 (≈ 1.37 µg/mL)	6.25 (≈ 11 µg/mL)	3.12 (≈ 5.49 µg/mL)	12.5 (≈ 22 µg/mL)	1.56 (≈ 2.75 µg/mL)	25 (≈ 44 µg/mL)	3.12 (≈ 5.49 µg/mL)	> 50	102	101	101	101	13	100 ± 2	93 ± 2	86 ± 4	86 ± 2	> 70	MIC (P. aeruginosa ATCC 27853): 25 µM (≈ 44 µg/mL); viability at 24 h, 100 µM ([5]; Cell viability (%)): 2 ± 1%; CC50 [6]: 59.6 µM; Cell viability (%) ([6]; 50 µM): 81 ± 4%; viability at 2 h, 3.12 µM [9]: 111%; viability at 2 h, 6.25 µM [9]: 119%; viability at 2 h, 12.5 µM [9]: 114%; viability at 2 h, 25 µM [9]: 100%; viability at 2 h, 50 µM [9]: 30%; viability at 24 h, 3.12 µM [9]: 104%; viability at 24 h, 6.25 µM [9]: 111%; viability at 24 h, 12.5 µM [9]: 111%; viability at 24 h, 25 µM [9]: 107%; viability at 24 h, 50 µM [9]: 33%; viability at 24 h, 100 µM [9]: 4%; remaining at 4 h, 200 μM (in vitro): ~20%; membrane permeabilization, Sytox Green fluorescence (in words) (S. aureus ATCC 25923 [10]): lower effect
